Like-named read-outs stand apart in the source and are kept apart here.
Key:
in vitro [1] = assay: in vitro; set-up: species or system CCD841, HEK293; conditions: human, hb2 cells, read-out: HB-2 Cells Viability (%)
in vitro [2] = assay: in vitro; set-up: species or system HB2, HEK293; conditions: human, ccd841 cells
in vitro [3] = assay: in vitro; set-up: species or system HB2, CCD841; conditions: human, hek293 cells
BSA = target: T1, BSA (Bos taurus, UniProt P02769); set-up: Intact protein LC/MS covalent labelling, fragments in pools of five, 200 uM each, 4 °C; conditions: 24 h, 4 °C, pool of five; 200 µM; covalent
T1 construct: gene ALB

NUDT7 = target: T2, NUDT7 (Homo sapiens, UniProt P0C024); set-up: Intact protein LC/MS covalent labelling, fragments in pools of five, 200 uM each, 4 °C; conditions: 24 h, 4 °C, pool of five; 200 µM; covalent
T2 construct: residues 14-235, E. coli, pNIC28-Bsa4, N-terminal His6 tag removed by TEV, construct 26672 Da

OTUB2 (OTUB2A) = target: T3, OTUB2 (OTUB2A) (Homo sapiens, UniProt Q96DC9); set-up: Intact protein LC/MS covalent labelling, fragments in pools of five, 200 uM each, 4 °C; conditions: 24 h, 4 °C, pool of five; 200 µM; covalent
T3 construct: full length residues 1-234, E. coli BL21(DE3)-R3, His tag removed by TEV, construct 27312 Da
T3 sequence (Q96DC9 1-234): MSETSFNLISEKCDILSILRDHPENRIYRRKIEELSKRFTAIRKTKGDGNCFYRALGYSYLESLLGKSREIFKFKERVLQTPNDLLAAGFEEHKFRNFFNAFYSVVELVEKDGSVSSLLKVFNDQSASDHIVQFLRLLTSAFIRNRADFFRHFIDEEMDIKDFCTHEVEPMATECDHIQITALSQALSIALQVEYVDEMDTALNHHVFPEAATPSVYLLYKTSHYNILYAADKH

PCAF = target: T4, PCAF (Homo sapiens, UniProt Q92831); set-up: Intact protein LC/MS covalent labelling, fragments in pools of five, 200 uM each, 4 °C; conditions: 24 h, 4 °C, pool of five; 200 µM; covalent
T4 construct: gene KAT2B
T4 sequence (Q92831 whole entry, the tested form may be a part): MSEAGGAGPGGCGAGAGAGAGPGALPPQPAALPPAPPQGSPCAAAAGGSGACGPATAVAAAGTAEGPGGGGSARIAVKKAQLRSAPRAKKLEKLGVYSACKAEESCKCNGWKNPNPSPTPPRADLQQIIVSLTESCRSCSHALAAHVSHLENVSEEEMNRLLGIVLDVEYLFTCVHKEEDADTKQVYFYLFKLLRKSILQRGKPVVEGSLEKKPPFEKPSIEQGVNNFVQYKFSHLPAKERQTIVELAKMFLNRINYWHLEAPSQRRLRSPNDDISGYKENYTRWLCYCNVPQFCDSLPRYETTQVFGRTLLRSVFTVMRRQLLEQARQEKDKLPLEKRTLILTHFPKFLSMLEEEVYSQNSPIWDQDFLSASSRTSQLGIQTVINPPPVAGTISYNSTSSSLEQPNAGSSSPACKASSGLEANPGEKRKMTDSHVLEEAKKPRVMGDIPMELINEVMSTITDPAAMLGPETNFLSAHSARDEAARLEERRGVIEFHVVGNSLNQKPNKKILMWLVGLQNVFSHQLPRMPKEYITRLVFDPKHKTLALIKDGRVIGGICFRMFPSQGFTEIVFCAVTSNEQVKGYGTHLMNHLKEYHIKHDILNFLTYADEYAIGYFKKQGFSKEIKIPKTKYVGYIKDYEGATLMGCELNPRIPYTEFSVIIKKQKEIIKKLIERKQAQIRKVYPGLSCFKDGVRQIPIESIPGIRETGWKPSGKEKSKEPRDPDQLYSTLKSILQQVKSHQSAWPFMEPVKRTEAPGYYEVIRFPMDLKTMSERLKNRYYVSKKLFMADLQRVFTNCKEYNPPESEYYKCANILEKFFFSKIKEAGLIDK

T1 sequence (P02769 whole entry, the tested form may be a part): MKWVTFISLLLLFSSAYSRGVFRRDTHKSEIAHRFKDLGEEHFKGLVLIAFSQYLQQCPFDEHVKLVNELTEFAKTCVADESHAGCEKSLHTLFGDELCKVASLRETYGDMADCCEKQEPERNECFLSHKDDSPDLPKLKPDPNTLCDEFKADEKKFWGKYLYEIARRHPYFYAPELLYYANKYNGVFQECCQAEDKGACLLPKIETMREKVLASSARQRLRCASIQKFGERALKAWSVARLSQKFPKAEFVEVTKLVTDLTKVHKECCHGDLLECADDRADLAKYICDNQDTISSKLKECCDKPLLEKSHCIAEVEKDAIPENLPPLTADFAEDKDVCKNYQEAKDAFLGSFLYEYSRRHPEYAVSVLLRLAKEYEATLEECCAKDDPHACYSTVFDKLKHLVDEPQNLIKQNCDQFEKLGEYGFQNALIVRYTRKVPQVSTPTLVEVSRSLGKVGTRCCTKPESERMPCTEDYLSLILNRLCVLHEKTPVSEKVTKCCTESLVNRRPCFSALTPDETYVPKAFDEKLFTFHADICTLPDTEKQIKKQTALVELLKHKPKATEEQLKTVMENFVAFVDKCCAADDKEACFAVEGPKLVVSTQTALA
T2 sequence (P0C024 14-235): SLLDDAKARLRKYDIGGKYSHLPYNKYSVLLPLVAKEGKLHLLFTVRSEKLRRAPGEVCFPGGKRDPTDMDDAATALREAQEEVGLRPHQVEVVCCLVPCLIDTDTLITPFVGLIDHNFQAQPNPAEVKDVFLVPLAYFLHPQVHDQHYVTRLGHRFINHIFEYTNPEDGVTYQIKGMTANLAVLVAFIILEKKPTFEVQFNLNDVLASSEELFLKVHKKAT

Row | Structure (SMILES) | viability at 48 h, 10 µM (in vitro [1]) [%] | viability at 48 h, 10 µM (in vitro [2]) [%] | viability at 48 h, 10 µM (in vitro [3]) [%] | BSA (BSA) | NUDT7 (NUDT7) | OTUB2 (OTUB2 (OTUB2A)) | PCAF (PCAF)
1 | CC1CN(c2ccc(NC(=O)CCl)cc2)CC(C)O1 (stereo not shown) [PCM-0102750] | 65.9 | 64.7 | 52.7 | 0 | 0 | 0.24 | 0
2 | CN(CC1COc2ccccc2O1)C(=O)CCl (stereo not shown) [PCM-0102756] | 13.3 | 52.5 | 21.7 | 0 | 0.16 | 0.06 | 0
3 | NC(=O)c1ccccc1NC(=O)CCl [PCM-0102758] | 69.6 | 66.1 | 53.5 | 0 | 0 | 0 | 0
4 | Cc1ccc(S(=O)(=O)N2CCN(C(=O)CCl)CC2)cc1 [PCM-0102759] | 7.5 | 49.9 | 8.6 | 0 | 0.12 | 0 | 0
5 | O=C(CCl)N(C1CCCCC1)C1CCS(=O)(=O)C1 (stereo not shown) [PCM-0102760] | 49.7 | 31.1 | 17.4 | 0 | 0.08 | 0 | 0
6 | O=C(O)C1Cc2ccccc2CN1C(=O)CCl (stereo not shown) [PCM-0102761] | 98.1 | 91.2 | 95.9 | 0 | 0.21 | 0 | 0
7 | O=C(CCl)Nc1cc(Cl)ccc1F [PCM-0102762] | 11.4 | 49.4 | 2.4 | 0 | 0 | 0.13 | 0
8 | COC(=O)c1ccc(Cl)c(NC(=O)CCl)c1 [PCM-0102764] | 16.7 | 39.9 | 5.7 | 0 | 0.07 | 0.29 | 0
9 | C=CC(=O)N1CCC(CS(C)(=O)=O)C1 (stereo not shown) [PCM-0102765] | 98.4 | 101 | 85.1 | 0 | 0 | 0 | 0
10 | C=CC(=O)NCC1CCCCC1 [PCM-0102766] | 97.5 | 114 | 79 | 0 | 0.05 | 0 | 0
11 | C=CC(=O)NCC1C2Cc3ccccc3C12 (stereo not shown) [PCM-0102769] | 94.3 | 97.5 | 79.1 | 0 | 0 | 0.21 | 0
12 | C=CC(=O)N1CCC(C(=O)N(C)c2ccccc2)C1 (stereo not shown) [PCM-0102771] | 100 | 106 | 72.2 | 0 | 0 | 0 | 0
13 | CSc1ccc(NC(=O)CCl)cc1 [PCM-0102772] | 15.2 | 51.2 | 3 | 0 | 0.13 | 0.28 | 0
14 | Cc1ccc(-c2nnc(C)[nH]2)c(NC(=O)CCl)c1 [PCM-0102775] | 61.1 | 45 | 53 | 0 | 0.13 | 0 | 0
15 | Cc1noc(C)c1CNC(=O)CCl [PCM-0102780] | 102 | 94.9 | 101 | 0 | 0.11 | 0 | 0
16 | CN(C(=O)CCl)C(C)(C)C#N [PCM-0102782] | 95.9 | 92.5 | 77.7 | 0 | 0 | 0 | 0

Source: PMC6556873, “Rapid Covalent-Probe Discovery by Electrophile-Fragment Screening” (Journal of the American Chemical Society, 2019)
